Test results from patent publication US6737383B1, “Herbicidal oxadiazolidines” (priority 1999, dated 2004).

Key:
morningglory = experiment: Test B pre/postemergence morningglory; format: in vivo, Ipomoea hederacea
Procedure, shortened: (§1)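 Test chemicals in a non-phytotoxic solvent mixture with surfactant were sprayed preemergence onto planted seeds and postemergence onto plants 2 to 18 cm tall (1- to 4-leaf stage). After twelve to sixteen days in a greenhouse, injury was visually rated against untreated controls from 0 (no effect) to 10 (complete control).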

pigweed = experiment: Test B pre/postemergence pigweed; format: in vivo, Amaranthus retroflexus
Procedure, shortened: as §1

giant foxtail = experiment: Test B pre/postemergence giant foxtail; format: in vivo, Setaria faberii
Procedure, shortened: as §1

rape = experiment: Test B pre/postemergence rape; format: in vivo, Brassica napus
Procedure, shortened: as §1

[1] = Postemergence, Rate 62 g/ha, scale 0 to 10, 0 is no effect, 10 is complete control
[2] = Postemergence, Rate 250 g/ha, scale 0 to 10, 0 no effect, 10 complete control
[3] = Preemergence, Rate 62 g/ha, scale 0 to 10 (0 no effect, 10 complete control)
[4] = Preemergence, Rate 125 g/ha, scale 0 to 10 (0 no effect, 10 complete control)
[5] = Preemergence, Rate 250 g/ha, scale of 0 to 10 where 0 is no effect and 10 is complete control
[6] = Preemergence, Rate 500 g/ha, scale 0 (no effect) to 10 (complete control)
[7] = Rate 125 g/ha, Postemergence, scale 0 to 10, 0 no effect, 10 complete control
[8] = Rate 500 g/ha, Postemergence, scale 0 to 10, 0 no effect, 10 complete control
[9] = Postemergence, Rate 62 g/ha, scale of 0 to 10, 0 is no effect, 10 is complete control
[10] = Postemergence, Rate 125 g/ha, scale 0 to 10, 0 is no effect, 10 is complete control
[11] = Postemergence, Rate 500 g/ha, scale 0 to 10, 0 is no effect, 10 is complete control
[12] = Preemergence, Rate 125 g/ha, scale 0 to 10, 0 is no effect, 10 is complete control
[13] = Preemergence, Rate 500 g/ha, scale of 0 to 10 where 0 is no effect and 10 is complete control
[14] = Rate 250 g/ha, Postemergence, scale of 0 to 10 where 0 is no effect and 10 is complete control
[15] = Postemergence, Rate 250 g/ha, scale 0 to 10, 0 is no effect, 10 is complete control
[16] = Rate 62 g/ha, Postemergence, scale of 0 to 10 where 0 is no effect and 10 is complete control

For `Cc1ccccc1Cn1c(=O)on(C(=O)N(C)c2ccccc2)c1=O` [Compound 85], the “Morningglory plant response rating” value (morningglory; [1]) was 0, the “Morningglory plant response rating” value (morningglory; [2]) was 0 and the “Morningglory plant response rating” value (morningglory; [3]) was 0. The “Plant response rating, Morningglory” value (morningglory; [4]) was 0, the “Plant response rating, Morningglory” value (morningglory; [5]) was 0 and the “Morningglory plant response rating” value (morningglory; [6]) was 0. The “Morningglory plant response rating” value (morningglory; [7]) was 0, the “Morningglory plant response rating” value (morningglory; [8]) was 0 and the “Redroot pigweed plant response rating” value (pigweed; [1]) was 0. For the same compound, the “Redroot pigweed plant response rating” value (pigweed; [2]) was 0, the “Redroot pigweed plant response rating” value (pigweed; [3]) was 0 and the “Plant response rating, Redroot pigweed” value (pigweed; [4]) was 0. For the same compound, the “Plant response rating, Redroot pigweed” value (pigweed; [5]) was 0, the “Redroot pigweed plant response rating” value (pigweed; [6]) was 0 and the “Redroot pigweed plant response rating” value (pigweed; [7]) was 0. The “Redroot pigweed plant response rating” value (pigweed; [8]) was 0, the “Giant foxtail plant response rating” value (giant foxtail; [1]) was 0 and the “Giant foxtail plant response rating” value (giant foxtail; [2]) was 0. The “Giant foxtail plant response rating” value (giant foxtail; [3]) was 0, the “Plant response rating, Giant foxtail” value (giant foxtail; [4]) was 0 and the “Plant response rating, Giant foxtail” value (giant foxtail; [5]) was 0. The “Giant foxtail plant response rating” value (giant foxtail; [6]) was 0, the “Giant foxtail plant response rating” value (giant foxtail; [7]) was 0 and the “Giant foxtail plant response rating” value (giant foxtail; [8]) was 0. For the same compound, the “Rape plant response rating” value (rape; [1]) was 0, the “Rape plant response rating” value (rape; [2]) was 0 and the “Rape plant response rating” value (rape; [3]) was 0. The “Plant response rating, Rape” value (rape; [4]) was 0, the “Plant response rating, Rape” value (rape; [5]) was 0 and the “Rape plant response rating” value (rape; [6]) was 0. The “Rape plant response rating” value (rape; [7]) was 0 and the “Rape plant response rating” value (rape; [8]) was 0.

In the case of `CC(C)N(C(=O)n1oc(=O)n(CC2CCC2)c1=O)c1ccc(Cl)cc1` [Compound 550], the “Morningglory plant response rating” value (morningglory; [9]) is reported as 1, the “Morningglory plant response rating” value (morningglory; [10]) is reported as 1 and the “Plant response rating, Morningglory” value (morningglory; [11]) is reported as 8. For the same compound, the “Morningglory plant response rating” value (morningglory; [3]) was 0, the “Morningglory plant response rating” value (morningglory; [12]) was 0 and the “Morningglory plant response rating (0 to 10 scale)” value (morningglory; Preemergence, Rate 250 g/ha) was 0. For the same compound, the “Morningglory plant response rating” value (morningglory; [13]) was 0, the “Plant response rating, Morningglory” value (morningglory; [14]) was 9 and the “Redroot pigweed plant response rating” value (pigweed; [9]) was 0. The “Redroot pigweed plant response rating” value (pigweed; [10]) was 0, the “Plant response rating, Redroot pigweed” value (pigweed; [11]) was 0 and the “Redroot pigweed plant response rating” value (pigweed; [3]) was 7. For the same compound, the “Redroot pigweed plant response rating” value (pigweed; [12]) was 9, the “Redroot pigweed plant response rating (0 to 10 scale)” value (pigweed; Preemergence, Rate 250 g/ha) was 9 and the “Redroot pigweed plant response rating” value (pigweed; [13]) was 10. For the same compound, the “Plant response rating, Redroot pigweed” value (pigweed; [14]) was 0, the “Giant foxtail plant response rating” value (giant foxtail; [9]) was 2 and the “Giant foxtail plant response rating” value (giant foxtail; [10]) was 6. For the same compound, the “Plant response rating, Giant foxtail” value (giant foxtail; [11]) was 9, the “Giant foxtail plant response rating” value (giant foxtail; [3]) was 7 and the “Giant foxtail plant response rating” value (giant foxtail; [12]) was 9. For the same compound, the “Giant foxtail plant response rating (0 to 10 scale)” value (giant foxtail; Preemergence, Rate 250 g/ha) was 10, the “Giant foxtail plant response rating” value (giant foxtail; [13]) was 10 and the “Plant response rating, Giant foxtail” value (giant foxtail; [14]) was 9. The “Rape plant response rating” value (rape; [9]) was 0, the “Rape plant response rating” value (rape; [10]) was 3 and the “Plant response rating, Rape” value (rape; [11]) was 3. The “Rape plant response rating” value (rape; [3]) was 0, the “Rape plant response rating” value (rape; [12]) was 0 and the “Rape plant response rating (0 to 10 scale)” value (rape; Preemergence, Rate 250 g/ha) was 6. The “Rape plant response rating” value (rape; [13]) was 9.

With `CC(C)N(C(=O)n1oc(=O)n(N2C(C)CCCC2C)c1=O)c1ccc(F)cc1F` (stereo not drawn) [Compound 383] the “Plant response rating, Morningglory” value (morningglory; [10]) was 0, the “Plant response rating, Morningglory” value (morningglory; [15]) was 0 and the “Plant response rating, Morningglory” value (morningglory; [3]) was 0. For the same compound, the “Morningglory plant response rating (0 to 10 scale)” value (morningglory; Preemergence, Rate 125 g/ha) was 0, the “Morningglory plant response rating” value (morningglory; [5]) was 0 and the “Morningglory plant response rating” value (morningglory; [13]) was 0. The “Morningglory plant response rating” value (morningglory; [16]) was 0, the “Plant response rating, Morningglory” value (morningglory; [8]) was 0 and the “Plant response rating, Redroot pigweed” value (pigweed; [10]) was 0. For the same compound, the “Plant response rating, Redroot pigweed” value (pigweed; [15]) was 0, the “Plant response rating, Redroot pigweed” value (pigweed; [3]) was 0 and the “Redroot pigweed plant response rating (0 to 10 scale)” value (pigweed; Preemergence, Rate 125 g/ha) was 0. The “Redroot pigweed plant response rating” value (pigweed; [5]) was 0, the “Redroot pigweed plant response rating” value (pigweed; [13]) was 3 and the “Redroot pigweed plant response rating” value (pigweed; [16]) was 0. The “Plant response rating, Redroot pigweed” value (pigweed; [8]) was 0, the “Plant response rating, Giant foxtail” value (giant foxtail; [10]) was 0 and the “Plant response rating, Giant foxtail” value (giant foxtail; [15]) was 6. The “Plant response rating, Giant foxtail” value (giant foxtail; [3]) was 0, the “Giant foxtail plant response rating (0 to 10 scale)” value (giant foxtail; Preemergence, Rate 125 g/ha) was 7 and the “Giant foxtail plant response rating” value (giant foxtail; [5]) was 10. For the same compound, the “Giant foxtail plant response rating” value (giant foxtail; [13]) was 10, the “Giant foxtail plant response rating” value (giant foxtail; [16]) was 0 and the “Plant response rating, Giant foxtail” value (giant foxtail; [8]) was 6. For the same compound, the “Plant response rating, Rape” value (rape; [10]) was 0, the “Plant response rating, Rape” value (rape; [15]) was 0 and the “Plant response rating, Rape” value (rape; [3]) was 0. The “Rape plant response rating (0 to 10 scale)” value (rape; Preemergence, Rate 125 g/ha) was 0, the “Rape plant response rating” value (rape; [5]) was 0 and the “Rape plant response rating” value (rape; [13]) was 0. The “Rape plant response rating” value (rape; [16]) was 0 and the “Plant response rating, Rape” value (rape; [8]) was 0.

`Cc1nn(C)c(C)c1-n1c(=O)on(C(=O)N(c2ccc(F)cc2F)C(C)C)c1=O` [Compound 76] was tested, and the “Morningglory plant response rating” value (morningglory; [1]) was 0, the “Morningglory plant response rating” value (morningglory; [2]) was 4 and the “Morningglory plant response rating” value (morningglory; [3]) was 0. The “Plant response rating, Morningglory” value (morningglory; [4]) was 0, the “Plant response rating, Morningglory” value (morningglory; [5]) was 0 and the “Morningglory plant response rating” value (morningglory; [6]) was 0. The “Morningglory plant response rating” value (morningglory; [7]) was 2, the “Morningglory plant response rating” value (morningglory; [8]) was 7 and the “Redroot pigweed plant response rating” value (pigweed; [1]) was 0. For the same compound, the “Redroot pigweed plant response rating” value (pigweed; [2]) was 0, the “Redroot pigweed plant response rating” value (pigweed; [3]) was 0 and the “Plant response rating, Redroot pigweed” value (pigweed; [4]) was 0. The “Plant response rating, Redroot pigweed” value (pigweed; [5]) was 3, the “Redroot pigweed plant response rating” value (pigweed; [6]) was 8 and the “Redroot pigweed plant response rating” value (pigweed; [7]) was 0. The “Redroot pigweed plant response rating” value (pigweed; [8]) was 4, the “Giant foxtail plant response rating” value (giant foxtail; [1]) was 3 and the “Giant foxtail plant response rating” value (giant foxtail; [2]) was 7. For the same compound, the “Giant foxtail plant response rating” value (giant foxtail; [3]) was 4, the “Plant response rating, Giant foxtail” value (giant foxtail; [4]) was 9 and the “Plant response rating, Giant foxtail” value (giant foxtail; [5]) was 9. The “Giant foxtail plant response rating” value (giant foxtail; [6]) was 9, the “Giant foxtail plant response rating” value (giant foxtail; [7]) was 4 and the “Giant foxtail plant response rating” value (giant foxtail; [8]) was 9. The “Rape plant response rating” value (rape; [1]) was 0, the “Rape plant response rating” value (rape; [2]) was 0 and the “Rape plant response rating” value (rape; [3]) was 0. For the same compound, the “Plant response rating, Rape” value (rape; [4]) was 0, the “Plant response rating, Rape” value (rape; [5]) was 0 and the “Rape plant response rating” value (rape; [6]) was 0. For the same compound, the “Rape plant response rating” value (rape; [7]) was 0 and the “Rape plant response rating” value (rape; [8]) was 2.

For `CN(C(=O)n1oc(=O)n(Cc2cccs2)c1=O)c1ccccc1` [Compound 83], the “Morningglory plant response rating” value (morningglory; [1]) was 0, the “Morningglory plant response rating” value (morningglory; [2]) was 0 and the “Morningglory plant response rating” value (morningglory; [3]) was 0. For the same compound, the “Plant response rating, Morningglory” value (morningglory; [4]) was 0, the “Plant response rating, Morningglory” value (morningglory; [5]) was 0 and the “Morningglory plant response rating” value (morningglory; [6]) was 0. For the same compound, the “Morningglory plant response rating” value (morningglory; [7]) was 0, the “Morningglory plant response rating” value (morningglory; [8]) was 0 and the “Redroot pigweed plant response rating” value (pigweed; [1]) was 0. The “Redroot pigweed plant response rating” value (pigweed; [2]) was 0, the “Redroot pigweed plant response rating” value (pigweed; [3]) was 0 and the “Plant response rating, Redroot pigweed” value (pigweed; [4]) was 0. The “Plant response rating, Redroot pigweed” value (pigweed; [5]) was 0, the “Redroot pigweed plant response rating” value (pigweed; [6]) was 0 and the “Redroot pigweed plant response rating” value (pigweed; [7]) was 0. The “Redroot pigweed plant response rating” value (pigweed; [8]) was 0, the “Giant foxtail plant response rating” value (giant foxtail; [1]) was 0 and the “Giant foxtail plant response rating” value (giant foxtail; [2]) was 0. For the same compound, the “Giant foxtail plant response rating” value (giant foxtail; [3]) was 0, the “Plant response rating, Giant foxtail” value (giant foxtail; [4]) was 0 and the “Plant response rating, Giant foxtail” value (giant foxtail; [5]) was 0. For the same compound, the “Giant foxtail plant response rating” value (giant foxtail; [6]) was 0, the “Giant foxtail plant response rating” value (giant foxtail; [7]) was 0 and the “Giant foxtail plant response rating” value (giant foxtail; [8]) was 0. The “Rape plant response rating” value (rape; [1]) was 0, the “Rape plant response rating” value (rape; [2]) was 0 and the “Rape plant response rating” value (rape; [3]) was 0. The “Plant response rating, Rape” value (rape; [4]) was 0, the “Plant response rating, Rape” value (rape; [5]) was 0 and the “Rape plant response rating” value (rape; [6]) was 0. For the same compound, the “Rape plant response rating” value (rape; [7]) was 0 and the “Rape plant response rating” value (rape; [8]) was 0.
